Measurements: patent US10913753B2, “Thienopyridine carboxamides as ubiquitin-specific protease inhibitors” (FORMA Therapeutics, Inc., priority 2016, dated 2021)

Legend:
[1] = molecular target: USP25 (Homo sapiens (Human), UniProt Q9UHP3); assay: Ubiquitin-Rhodamine 110 Assay for USP25 Activity; format: biochemical
Protocol: The assay was performed in a final volume of 9 μL in assay buffer containing 20 mM Tris-HCl (pH 8.0, (1M Tris-HC1, pH 8.0 solution; Corning 46-031-CM)), 3 mM BME (2-Mercaptoethanol; Sigma 63689-25ML-F), 0.03% BGG (0.22 μM filtered, Sigma, G7516-25G), and 0.01% Triton X-100 (Sigma, T9284-10L). Nanoliter quantities of 10-point, 3-fold serial dilution in DMSO was pre-dispensed into 1536 assay plates (Corning, #3724BC) for a final test concentration of 25 μM to 1.3 nM, top to lowest dose, respectively. Enzyme USP25, construct USP25-His6, (Boston Biochem E-546). Concentration and incubation times were optimized for the maximal signal-to-background while maintaining initial velocity conditions at a fixed substrate concentration. The final concentration of the enzyme in the assay was 75 pM. […] 3 μL of 2× enzyme was added to assay plates (pre-stamped with compound) preincubated with […] for 30 minutes and then 3 μL of 2× Ub-Rh110 was added to assay plates. Plates were incubated for 45 minutes at room temperature before addition of 3 μL of stop solution (final concentration of 10 mM citric acid (Sigma, 251275-500G)). Fluorescence was read on the Envision (Excitation at 485 nm and Emission at 535 nm; Perkin Elmer) or on the PheraSTAR (Excitation at 485 nm and Emission at 535 nm; BMG Labtech).
(§1) For both the USP28 and USP25 assay formats, data were reported as percent inhibition compared with control wells based on the following equation: % inh=1-((FLU-AveLow)/(AveHigh−AveLow)) where FLU=measured Fluorescence, AveLow=average Fluorescence of no enzyme control (n=16), and AveHigh=average Fluorescence of DMSO control (n=16). IC50 values were determined by curve fitting of the standard 4 parameter logistic fitting algorithm included in the Activity Base software package: IDBS XE Designer Model205. Data is fitted using the Levenburg Marquardt algorithm.

[2] = molecular target: USP28 (Homo sapiens (Human), UniProt Q96RU2); assay: Ubiquitin-Rhodamine 110 Assay for USP28 Activity; format: biochemical
Protocol: The assay was performed in a final volume of 20 μL in assay buffer containing 20 mM Tris-HCl (pH 8.0, (1M Tris-HCl, pH 8.0 solution; Corning 46-031-CM)), 2 mM CaCl2 (1M Calcium Chloride solution; Sigma #21114) 2 mM BME (2-Mercaptoethanol; Sigma 63689-25ML -F), 0.01% Prionex (0.22 μM filtered, Sigma #G-0411), and 0.01% Triton X-100. Stock compound solutions were stored at −20° C. as 10 mM in DMSO. Up to 1 month prior to the assay, 2 mM test compounds were pre-dispensed into assay plates (Black, low volume; Corning #3820) and frozen at −20° C. Prestamped assay plates were allowed to come to room temperature on the day of the assay. For the screen, 100 nL of 2 mM was pre-dispensed for a final screening concentration of 10 μM (DMSO(fc)=0.5%). […] Plates were incubated stacked for 90 minutes at room temperature before fluorescence was read on the Envision (Excitation at 485 nm and Emission at 535 nm; Perkin Elmer) or on the PheraSTAR (Excitation at 485 nm and Emission at 535 nm; BMG Labtech).
For follow-up studies, the assay was performed in a final volume of 15 μL in assay buffer containing 20 mM Tris-HCl (pH 8.0, (1M Tris-HCl, pH 8.0 solution; Corning 46-031-CM)), 3 mM BME (2-Mercaptoethanol; Sigma 63689-25ML-F), 0.03% BGG (0.22 μM filtered, Sigma, G7516-25G), and 0.01% Triton X-100 (Sigma, T9284-10L). Nanoliter quantities of either an 8-point or 10-point, 3-fold serial dilution in DMSO was pre-dispensed into assay plates (Perkin Elmer, ProxiPlate-384 F Plus) for a final test concentration of either 25 μM to 11 nM or 25 μM to 1.3 nM, respectively. Enzyme USP28, construct USP28 (USP28-5(1-1077)-TEV-6*His; LifeSensors) concentration and incubation times were optimized for the maximal signal-to -background while maintaining initial velocity conditions at a fixed substrate concentration. The final concentration of the enzyme in the assay was 75 pM. […] 5 μL of 2× enzyme was added to assay plates (pre-stamped with compound) preincubated with USP28 for 30 minutes and then 5 μL of 2× Ub-Rh110 was added to assay plates. Plates were incubated stacked for 20 min at room temperature before 5 μL of stop solution was added (final concentration of 10 mM citric acid (Sigma, 251275-500G)). Fluorescence was read on the Envision (Excitation at 485 nm and Emission at 535 nm; Perkin Elmer) or on the PheraSTAR (Excitation at 485 nm and Emission at 535 nm; BMG Labtech).
as §1

USP25, sequence (Q9UHP3 whole entry): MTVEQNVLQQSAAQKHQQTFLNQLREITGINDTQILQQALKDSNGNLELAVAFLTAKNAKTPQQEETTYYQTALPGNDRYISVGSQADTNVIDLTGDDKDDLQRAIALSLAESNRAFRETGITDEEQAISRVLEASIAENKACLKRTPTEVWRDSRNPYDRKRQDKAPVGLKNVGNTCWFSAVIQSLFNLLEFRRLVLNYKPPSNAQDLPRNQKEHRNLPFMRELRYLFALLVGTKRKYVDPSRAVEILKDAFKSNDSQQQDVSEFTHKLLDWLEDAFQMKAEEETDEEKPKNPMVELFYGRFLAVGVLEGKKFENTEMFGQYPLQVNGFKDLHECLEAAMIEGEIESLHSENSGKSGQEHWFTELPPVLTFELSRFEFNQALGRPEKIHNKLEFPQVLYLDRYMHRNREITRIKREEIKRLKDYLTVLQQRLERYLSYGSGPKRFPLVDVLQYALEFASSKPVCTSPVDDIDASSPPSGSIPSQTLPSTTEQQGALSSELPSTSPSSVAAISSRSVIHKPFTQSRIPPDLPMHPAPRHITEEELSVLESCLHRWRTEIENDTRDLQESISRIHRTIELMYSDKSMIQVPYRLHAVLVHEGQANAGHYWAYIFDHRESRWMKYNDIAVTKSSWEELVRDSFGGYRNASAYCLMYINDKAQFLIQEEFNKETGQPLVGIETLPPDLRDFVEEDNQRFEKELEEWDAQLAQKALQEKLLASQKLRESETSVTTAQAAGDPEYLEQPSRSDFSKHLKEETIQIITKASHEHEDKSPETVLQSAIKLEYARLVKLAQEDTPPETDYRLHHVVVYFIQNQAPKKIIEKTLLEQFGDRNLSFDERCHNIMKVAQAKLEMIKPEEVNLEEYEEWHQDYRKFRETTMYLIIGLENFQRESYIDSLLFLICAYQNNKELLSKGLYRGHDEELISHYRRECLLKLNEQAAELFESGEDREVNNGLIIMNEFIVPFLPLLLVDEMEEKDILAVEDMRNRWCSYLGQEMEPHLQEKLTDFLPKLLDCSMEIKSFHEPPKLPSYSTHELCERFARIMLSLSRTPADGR
USP28, sequence (Q96RU2 whole entry): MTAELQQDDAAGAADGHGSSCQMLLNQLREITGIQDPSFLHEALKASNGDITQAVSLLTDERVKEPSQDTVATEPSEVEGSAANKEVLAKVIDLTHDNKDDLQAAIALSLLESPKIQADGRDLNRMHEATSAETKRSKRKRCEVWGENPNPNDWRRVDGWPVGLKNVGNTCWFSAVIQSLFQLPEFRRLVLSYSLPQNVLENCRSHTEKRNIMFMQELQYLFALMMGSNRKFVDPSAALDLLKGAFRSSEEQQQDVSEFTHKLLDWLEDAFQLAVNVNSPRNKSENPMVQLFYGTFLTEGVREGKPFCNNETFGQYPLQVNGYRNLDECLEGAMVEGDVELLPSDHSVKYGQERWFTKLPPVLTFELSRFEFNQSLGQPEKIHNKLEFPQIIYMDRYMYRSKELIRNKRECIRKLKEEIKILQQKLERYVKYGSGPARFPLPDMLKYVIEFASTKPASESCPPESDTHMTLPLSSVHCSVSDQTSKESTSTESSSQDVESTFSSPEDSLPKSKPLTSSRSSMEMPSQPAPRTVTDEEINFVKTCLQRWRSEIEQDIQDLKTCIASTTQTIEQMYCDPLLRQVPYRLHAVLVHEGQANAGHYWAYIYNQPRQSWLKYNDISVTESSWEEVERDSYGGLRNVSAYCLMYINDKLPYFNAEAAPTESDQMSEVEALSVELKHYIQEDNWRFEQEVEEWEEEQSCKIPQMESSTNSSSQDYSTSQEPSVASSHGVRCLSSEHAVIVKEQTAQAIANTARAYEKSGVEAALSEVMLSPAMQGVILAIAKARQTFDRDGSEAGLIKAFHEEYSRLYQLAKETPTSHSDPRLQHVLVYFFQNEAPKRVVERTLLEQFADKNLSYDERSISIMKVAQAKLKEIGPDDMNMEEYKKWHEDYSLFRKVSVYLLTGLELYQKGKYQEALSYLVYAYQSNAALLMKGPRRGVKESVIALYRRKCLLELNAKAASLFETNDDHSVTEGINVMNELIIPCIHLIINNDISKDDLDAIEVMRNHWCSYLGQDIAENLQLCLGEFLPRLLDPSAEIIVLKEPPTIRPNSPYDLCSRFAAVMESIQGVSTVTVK

Structure (SMILES) | IC50 [1] | IC50 [2]
Cc1ccc2c(N)c(C(=O)N[C@H]3C[C@@H](c4ccc(N5CCNCC5)cc4)C3)sc2n1 [Example I-91, cis-3-Amino-6-methyl-N-(3-(4-(piperazin-1-yl)phenyl)cyclobutyl)thieno [2,3-b]pyridine-2-carboxamide] | 0.2 to 2 µM | 0.2 to 2 µM
Nc1c(C(=O)NCCc2ccc(N3CCNCC3)cc2)sc2nc3c(cc12)CCC3 [Compound I-29] | 2 to 10 µM | 2 to 10 µM
Cc1ccc2c(N)c(C(=O)NCCc3ccc(N4CC5CCC(C4)N5)cc3)sc2n1 [Compound I-15] | 0.2 to 2 µM | < 0.2 µM
Cc1ccc2c(N)c(C(=O)NC[C@H](C)c3ccc(N4CC5CCC(C4)N5)c(C#N)c3)sc2n1 (single isomer, unassigned) [Example I-110] | 2 to 10 µM | 0.2 to 2 µM
Cc1nc2sc(C(=O)NCCc3cc(F)c(N4CCNCC4)cc3F)c(N)c2cc1F [Compound I-46] | – | 0.2 to 2 µM
Cc1ccc2c(N)c(C(=O)NCCc3ccc(O[C@H]4COC5(CNC5)C4)cc3)sc2n1 (single isomer, unassigned) [Example I-219] | 0.2 to 2 µM | 0.2 to 2 µM
Cc1ccc2c(N)c(C(=O)NCCc3ccc(N4CCNCC4)c(C)c3)sc2n1 [Example I-74, 3-Amino-6-methyl-N-(3-methyl-4-(piperazin-1-yl)phenethyl)thieno[2,3-b]pyridine-2-carboxamide] | – | < 0.2 µM
Cc1ccc2c(N)c(C(=O)NCCc3ccc(N4CC[C@H](N(C)C)C4)cc3)sc2n1 [Example I-118] | – | 0.2 to 2 µM
Cc1cc(Cl)nc2sc(C(=O)NCCc3ccc(N4CCNCC4)cc3)c(N)c12 [Compound I-56] | 0.2 to 2 µM | 0.2 to 2 µM
Nc1c(C(=O)NCCc2ccc(N3CCNCC3)cc2)sc2nc(Cl)ccc12 [Compound I-57] | – | 0.2 to 2 µM
Cc1ccc2c(N)c(C(=O)NCCc3cc(F)c(N4CC5CCC(C4)N5)c(F)c3)sc2n1 [Compound I-45] | – | < 0.2 µM
Cc1ccc2c(N)c(C(=O)NCCc3ccc(N4CC5CNCC(C4)O5)cc3)sc2n1 [Compound I-66] | – | < 0.2 µM
Cc1ccc2c(N)c(C(=O)NC[C@@H](C)c3cc(F)c(N4CC5CCC(C4)N5)cc3F)sc2n1 (single isomer, unassigned) [Example I-97] | 2 to 10 µM | 0.2 to 2 µM
CC(C)Oc1ccc2c(N)c(C(=O)NCCc3ccc(N4CCNCC4)cc3)sc2n1 [Example I-192] | 2 to 10 µM | 0.2 to 2 µM
Cc1ccc2c(N)c(C(=O)NCCc3ccc(N4CCNCC4)c(F)c3)sc2n1 [Example I-10, 3-Amino-N-(3-fluoro-4-(piperazin-1-yl)phenethyl)-6-methylthieno[2,3-b]pyridine-2-carboxamide] | 0.2 to 2 µM | 2 to 10 µM
CNc1ccc2c(N)c(C(=O)NCCc3ccc(N4CCNCC4)cc3)sc2n1 [Example I-187] | – | 0.2 to 2 µM
Cc1ccc2c(N)c(C(=O)NCCc3ccc(N4CCn5ccnc5C4)cc3)sc2n1 [Example I-116, 3-Amino-N-(4-(5,6-dihydroimidazo[1,2-a]pyrazin-7(8H)-yl)phenethyl)-6-methylthieno[2,3-b]pyridine-2-carboxamide] | 0.2 to 2 µM | 0.2 to 2 µM
CNc1ccc2c(N)c(C(=O)NCCc3ccc(N4CCN(C)CC4)cc3)sc2n1 [Example I-195] | 0.2 to 2 µM | < 0.2 µM
Cc1ccc2c(N)c(C(=O)NCCc3ccc(N4CC[C@@H](NC(C)C)C4)cc3)sc2n1 [Compound I-201] | 0.2 to 2 µM | 0.2 to 2 µM
Cc1ccc2c(N)c(C(=O)NCCc3ccc(-n4ncc5c4CNC5)cc3F)sc2n1 [Compound I-41] | 0.2 to 2 µM | < 0.2 µM
Cc1ccc2c(N)c(C(=O)NCCc3ccc(N4CCN[C@H](CO)C4)cc3)sc2n1 [Example I-86] | 0.2 to 2 µM | 0.2 to 2 µM

Structure (SMILES) | IC50 [1] | IC50 [2]
Cc1ccc2c(N)c(C(=O)NC[C@@H](C)c3cc(F)c(N4CCNCC4)cc3F)sc2n1 [Example I-207] | – | 0.2 to 2 µM
CCc1nc2sc(C(=O)NCCc3cc(F)c(N4CCNCC4)cc3F)c(N)c2cc1F [Compound I-55] | – | < 0.2 µM
Cc1ccc2c(N)c(C(=O)NCCc3cc(F)c(C4CCNCC4)cc3F)sc2n1 [Example I-113, 3-Amino-N-(2,5-difluoro-4-(piperidin-4-yl)phenethyl)-6-methylthieno[2,3-b]pyridine-2-carboxamide] | – | < 0.2 µM
Cc1ccc2c(N)c(C(=O)NCCc3ccc(-n4ncc5c4CNC5)c(F)c3)sc2n1 [Example I-80] | – | 2 to 10 µM
Cc1ccc2c(N)c(C(=O)NCCc3cc(F)c(N4CCNCC4)c(Cl)c3)sc2n1 [Compound I-8] | – | < 0.2 µM
Nc1c(C(=O)NCCc2ccc(N3CCNCC3)c(Cl)c2)sc2ncc(F)cc12 [Compound I-39] | – | 2 to 10 µM
Cc1ccc2c(N)c(C(=O)NCCc3ccc(N4CCN(CCN5CCCC5)CC4)cc3)sc2n1 [Example I-119] | – | 2 to 10 µM
Cc1ccc2c(N)c(C(=O)NCCc3cc(F)c(N4CCNCC4)c(F)c3)sc2n1 [Compound I-4] | – | < 0.2 µM
Cc1ccc2c(N)c(C(=O)NCCc3cc(F)c(N4CCN[C@H](C)C4)cc3F)sc2n1 [Example I-209, (R)-3-amino-N-(2,5-difluoro-4-(3-methylpiperazin-1-yl)phenethyl) -6-methylthieno[2,3-b]pyridine-2-carboxamide] | – | 10 to 25 µM
CN[C@@H]1CCN(c2cc(F)c(CCNC(=O)c3sc4nc(C)ccc4c3N)cc2F)C1 [Compound I-49] | – | < 0.2 µM
Cc1cnc2sc(C(=O)NCCc3ccc(N4CCNCC4)c(Cl)c3)c(N)c2c1 [Compound I-32] | – | 2 to 10 µM
Cc1ccc2c(N)c(C(=O)NCCc3ccc(N4CCn5cncc5C4)cc3)sc2n1 [Example I-120] | – | < 0.2 µM
Cc1ccc2c(N)c(C(=O)NCCc3ccc(N4CCNCC4)c(C(F)(F)F)c3)sc2n1 [Compound I-3] | – | 0.2 to 2 µM
Cc1nc2sc(C(=O)NCCc3ccc(N4CCNCC4)c(Cl)c3)c(N)c2cc1F [Compound I-9] | – | 0.2 to 2 µM
COc1ccc2c(N)c(C(=O)NCCc3cc(F)c(N4CCNCC4)cc3F)sc2n1 [Compound I-51] | – | < 0.2 µM
Cc1ccc2c(N)c(C(=O)NCCc3cc(F)c(N4CCNCC4)c(F)c3F)sc2n1 [Compound I-35] | – | < 0.2 µM
CN[C@H]1CCN(c2cc(F)c(CCNC(=O)c3sc4nc(C)ccc4c3N)cc2F)C1 [Compound I-50] | – | 0.2 to 2 µM
Cc1ccc2c(N)c(C(=O)NCCc3c(F)cc(N4CCNCC4)cc3F)sc2n1 [Compound I-42] | – | 0.2 to 2 µM
Cc1ccc2c(N)c(C(=O)NC[C@H](C)c3ccc(N4CCNCC4)cc3)sc2n1 (single isomer, unassigned) [Example I-202] | – | 0.2 to 2 µM
Cc1ccc2c(N)c(C(=O)NCCc3ccc(N4CC[C@@H](N(C)C)C4)cc3)sc2n1 [Example I-117] | – | 0.2 to 2 µM
Nc1c(C(=O)NCCc2ccc(N3CCNCC3)cc2)sc2nc(C3CC3)ccc12 [Example I-114, 3-Amino-6-cyclopropyl-N-(4-(piperazin-1-yl)phenethyl)thieno[2,3-b]pyridine-2-carboxamide] | – | < 0.2 µM
